{
  "source": "patent US20050008656A1",
  "about": "“Compositions and methods for an orally administered inhibitor of biting insects” (priority 2003, published 2005)",
  "origin": "cited, not measured here",
  "key": {"[1]": {"conditions": "in vivo"}, "biting insects": {"system": "biting insects", "conditions": "ingested"}, "[2]": {"conditions": "in vivo", "remark": "listed apart in the source"}},
  "data": [
    {"compound": "O=C(O)CCCC[C@@H]1SC[C@@H]2NC(=O)N[C@@H]21", "note": "[Biotin]", "values": [
      {"measurement": "toxicity (in words)", "setting": "[1]", "value": "No toxic levels are known"}
    ]},
    {"compound": "CCN(CC)C(=O)c1cccc(C)c1", "note": "[DEET, N, N-diethyl-3-methylbenzamide, reference compound]", "values": [
      {"measurement": "toxicity (in words)", "setting": "[1]", "value": "toxicity, including encephalopathy and seizures"}
    ]},
    {"compound": "O=C(O)c1cccnc1", "note": "[Nicotinic acid]", "values": [
      {"measurement": "dose above which flushing by dilating the blood vessels occurs", "setting": "[1]", "value": "> 200", "unit": "mg"}
    ]},
    {"compound": "CC1CCC(C(C)(C)O)C(O)C1", "note": "(stereo not shown) [PMD, p-menthane-3,8-diol, reference compound]", "values": [
      {"measurement": "eye irritation", "setting": "[1]", "value": "significant eye irritation"}
    ]},
    {"compound": "C/C=C/C=C/C(=O)O", "note": "[Sorbic acid]", "values": [
      {"measurement": "toxicity (in words)", "setting": "[1]", "value": "non-toxic even when taken in large quantities"}
    ]},
    {"compound": "Cc1ncc(CO)c(CO)c1O", "note": "[Vitamin B6, Pyridoxine]", "values": [
      {"measurement": "dosage above which neurological damage may be caused", "setting": "[1]", "value": "> 2,000 mg per day"}
    ]},
    {"compound": "C[N+](C)(C)CCO", "note": "[choline]", "values": [
      {"measurement": "maximum level set for safety", "setting": "[1]", "value": 3.5, "unit": "g/day"}
    ]},
    {"compound": "O[C@H]1[C@H](O)[C@@H](O)[C@H](O)[C@@H](O)[C@H]1O", "note": "[inositol]", "values": [
      {"measurement": "toxicity (in words)", "setting": "[1]", "value": "No toxic effects known"}
    ]},
    {"compound": "Cc1ncc(C[n+]2csc(CCO)c2C)c(N)n1", "note": "[thiamine]", "values": [
      {"measurement": "effectiveness at inhibiting insects from biting", "setting": "biting insects", "value": "not effective"}
    ]},
    {"compound": "Cyanocobalamin [B12]", "values": [
      {"measurement": "time needed to be absorbed", "setting": "[2]", "value": "~3", "unit": "h"}
    ]}
  ]
}
